According to ChEMBL document CHEMBL5214887, “Dispirotripiperazine-core compounds, their biological activity with a focus on broad antiviral property, and perspectives in drug design (mini-review)” (Eur J Med Chem, 2021):

Legend:
Human alphaherpesvirus 1 [1] = assay: Antiviral activity against HSV-1 infected in African green monkey GMK-AH-1 cells assessed as viral growth inhibition incubated for 73 hrs by crystal violet staining assay; format: functional, organism-based; details: Human alphaherpesvirus 1, 73 h
[2] = system: Respiratory syncytial virus; assay: Antiviral activity against RSV assessed as viral growth inhibition; format: functional, organism-based; details: human respiratory syncytial virus
Human betaherpesvirus 5 [3] = assay: Antiviral activity against ganciclovir sensitive HCMV infected in human HELF cells assessed as viral growth inhibition incubated for 8 days; format: functional, organism-based; details: Human betaherpesvirus 5, HELF, 192 h
Human alphaherpesvirus 2 = assay: Antiviral activity against HSV-2 infected in African green monkey GMK-AH-1 cells assessed as viral growth inhibition incubated for 73 hrs; format: functional, organism-based; details: Human alphaherpesvirus 2, 73 h
Deltapapillomavirus 4 = assay: Antiviral activity against BPV1 infected in human HEK293T cells assessed as viral growth inhibition incubated for 72 hrs by green fluorescent protein based method; format: functional, organism-based; details: Deltapapillomavirus 4, HEK-293T
[4] = system: Human papillomavirus type 16; assay: Antiviral activity against HPV16 infected in human HEK293T cells assessed as viral growth inhibition incubated for 72 hrs by green fluorescent protein based method; format: functional, organism-based; details: Human papillomavirus 16, HEK-293T
Human betaherpesvirus 5 [5] = assay: Antiviral activity against ganciclovir resistant HCMV infected in human HELF cells assessed as viral growth inhibition incubated for 8 days; format: functional, organism-based; details: Human betaherpesvirus 5, HELF, 192 h
Human alphaherpesvirus 1 [6] = assay: Antiviral activity against acyclovir resistant HSV-1 infected in African green monkey GMK-AH-1 cells assessed as viral growth inhibition incubated for 73 hrs; format: functional, organism-based; details: Human alphaherpesvirus 1, 73 h
[7] = system: Human immunodeficiency virus 1; assay: Antiviral activity against HIV-1 assessed as viral growth inhibition; format: functional, organism-based
[8] = Antiviral activity against HPV18 infected in human HEK293T cells assessed as viral growth inhibition incubated for 72 hrs by green fluorescent protein based method; format: functional, cell-based; details: human papillomavirus 18, HEK-293T
[9] = system: Human immunodeficiency virus; assay: Antiviral activity against HIV assessed as viral growth inhibition; format: functional, organism-based; details: Human immunodeficiency virus 1
Lyssavirus rabies = assay: Antiviral activity against radiolabeled Rabies virus infected in bovine MDBK cell at 80 ug/ml incubated for 4 hrs by attachment assay based liquid scintillation counting analysis; format: functional; details: dose 80 µg/ml
Human alphaherpesvirus 1 [10] = assay: Antiviral activity against HSV-1 assessed as viral growth inhibition; format: functional, organism-based
[11] = […] in herpetic encephalitis mouse model assessed as reduction in mortality at 250 mg/kg,po bid for 5 days; format: organism-based; design: scale not given: the % may be the effect or the level left; details: in vivo, 120 h, time 5 day
[12] = Toxicity in mouse assessed as lethal dose at ip as single dose; format: organism-based; details: in vivo

Cc1nc(N2CC[N+]3(CC2)CC[N+]2(CCNCC2)CC3)c([N+](=O)[O-])c(N2CC[N+]3(CC2)CC[N+]2(CCNCC2)CC3)n1
IC50 (Human alphaherpesvirus 1 [1]): 1480 nM

Cl.Cl.[O-][n+]1onc2ncnc(N3CC[N+]4(CC3)CC[N+]3(CCN(c5ncnc6no[n+]([O-])c56)CC3)CC4)c21
IC50 [2]: 7500 nM
IC50 (Human betaherpesvirus 5 [3]): 150 nM
IC50 (Human alphaherpesvirus 2): 10200 nM
IC50 (Deltapapillomavirus 4): 2600 nM
IC50 [4]: 1400 nM
IC50 (Human betaherpesvirus 5 [5]): 150 nM
IC50 (Human alphaherpesvirus 1 [6]): 8100 nM
IC50 [7]: 150000 nM
IC50 [8]: 700 nM
IC50 [9]: 1400 nM
Activity (Lyssavirus rabies): 95%

O=C(CCBr)N1CC[N+]2(CC1)CC[N+]1(CCN(C(=O)CCBr)CC1)CC2.[Cl-].[Cl-] [DIBROSPIDIUM CHLORIDE]
IC50 (Human alphaherpesvirus 1 [10]): 66100 nM
Activity [11]: 35%
LD50 [12]: 1920 mg/kg

OC(CCl)CN1CC[N+]2(CC1)CC[N+]1(CCN(CC(O)CCl)CC1)CC2.[Cl-].[Cl-] (configuration not stated) [PROSPIDIUM CHLORIDE]
IC50 (Human alphaherpesvirus 1 [10]): 62500 nM
LD50 [12]: 100 mg/kg

Cc1nc(N2CC[N+]3(CCC[N+]4(CCNCC4)CC3)CC2)c([N+](=O)[O-])c(N2CC[N+]3(CCC[N+]4(CCNCC4)CC3)CC2)n1
IC50 (Human alphaherpesvirus 1 [10]): 1120 nM

O=C(CCCl)N1CC[N+]2(CC1)CC[N+]1(CCN(C(=O)CCCl)CC1)CC2.[Cl-].[Cl-]
Activity [11]: 35%

Cc1nc(N2CCC[N+]3(CC2)CC[N+]2(CCCNCC2)CC3)c([N+](=O)[O-])c(N2CCC[N+]3(CC2)CC[N+]2(CCCNCC2)CC3)n1 (configuration not stated)
IC50 (Human alphaherpesvirus 1 [10]): 1970 nM
IC50 [2]: > 100000 nM
IC50 [9]: 4000 nM
